# Entries after “also recorded” stand apart in the source; their conditions may differ.
# Experiments:
# [1] = tested on: cells labeled adjacent the implantation site in the adult mouse cortex; assay type: cell-based
# Experimental: Implantable devices were filled with α-bungarotoxin fused to the dye Alexa Fluor 555 (α-BTX Alexa 555) in PBS at a concentration of 0.3 mg/mL. Animals were treated with the implantable device for 2 hours prior to sacrifice. Tissues were prepared for live cell electrophysiology assays (patch clamp) and fluorescence imaging.
# Implantable devices filled with fluorescently labeled α-bungarotoxin (α-BTX) were implanted and the release was studied via imaging and live cell electrophysiology assays.
# adult mouse cortex = conditions: in vivo
Compound,"electrophysiological activity of agonist AR-R17779 in the control group ([1]; cells labeled with control (Alexa 555) released from the device, patch clamp)",labeling of individual cells (uptake) (adult mouse cortex),localization of fluorescence after release from the implantable device (adult mouse cortex),electrophysiological response of the α-BTX labeled cell to agonist AR-R17779 [1]
O=C1NCC2(CN3CCC2CC3)O1 (stereo not shown) [AR-R17779],inhibitory activity,,,
α-bungarotoxin [α-BTX-Alexa 555],,individual cells were clearly labeled; also recorded: labeling individual cells,local to the implantation site; also recorded: adjacent the implantation site,no activity
